Where “and” joins values, the source holds several entries; their conditions need not be identical. Equal values may be shown once. ± gives the uncertainty stated by the source.
Experiment: xn = mol fraction of the nth substance listed

COCCOCCO + CCCC[n+]1ccn(C)c1.F[P-](F)(F)(F)(F)F
viscosity (283.15 K, 100 kPa, x2 = 0.05331): 7.5 ± 0.092 mPa·s | viscosity (283.15 K, 100 kPa, x2 = 0.09804): 9.72 ± 0.12 mPa·s | viscosity (283.15 K, 100 kPa, x2 = 0.19): 15.75 ± 0.2 mPa·s | viscosity (283.15 K, 100 kPa, x2 = 0.2921): 25.91 ± 0.35 mPa·s | viscosity (283.15 K, 100 kPa, x2 = 0.384): 39.17 ± 0.54 mPa·s | viscosity (283.15 K, 100 kPa, x2 = 0.4556): 57.5 ± 0.81 mPa·s | viscosity (283.15 K, 100 kPa, x2 = 0.5782): 97.4 ± 1.8 mPa·s | viscosity (283.15 K, 100 kPa, x2 = 0.6754): 141.2 ± 3.2 mPa·s | viscosity (283.15 K, 100 kPa, x2 = 0.7826): 218.3 ± 6.1 mPa·s | viscosity (283.15 K, 100 kPa, x2 = 0.8947): 394 ± 15 mPa·s | viscosity (283.15 K, 100 kPa, x2 = 0.9428): 522 ± 22 mPa·s | viscosity (293.15 K, 100 kPa, x2 = 0.04991): 5.319 ± 0.066 mPa·s | viscosity (293.15 K, 100 kPa, x2 = 0.09685): 6.745 ± 0.085 mPa·s | viscosity (293.15 K, 100 kPa, x2 = 0.1962): 10.81 ± 0.14 mPa·s | viscosity (293.15 K, 100 kPa, x2 = 0.291): 16.42 ± 0.22 mPa·s | viscosity (293.15 K, 100 kPa, x2 = 0.4): 25.65 ± 0.36 mPa·s | viscosity (293.15 K, 100 kPa, x2 = 0.5144): 42.34 ± 0.62 mPa·s | viscosity (293.15 K, 100 kPa, x2 = 0.5864): 52.18 ± 0.77 mPa·s | viscosity (293.15 K, 100 kPa, x2 = 0.673): 67.5 ± 1.1 mPa·s | viscosity (293.15 K, 100 kPa, x2 = 0.7866): 103.1 ± 2.1 mPa·s | viscosity (293.15 K, 100 kPa, x2 = 0.8943): 187.6 ± 5 mPa·s | viscosity (293.15 K, 100 kPa, x2 = 0.945): 239.3 ± 7.2 mPa·s | viscosity (303.15 K, 100 kPa, x2 = 0.05183): 4.124 ± 0.052 mPa·s | viscosity (303.15 K, 100 kPa, x2 = 0.09655): 5.063 ± 0.064 mPa·s | viscosity (303.15 K, 100 kPa, x2 = 0.1884): 7.095 ± 0.092 mPa·s | viscosity (303.15 K, 100 kPa, x2 = 0.2922): 11.15 ± 0.15 mPa·s | viscosity (303.15 K, 100 kPa, x2 = 0.3935): 16.31 ± 0.23 mPa·s | viscosity (303.15 K, 100 kPa, x2 = 0.5055): 26.04 ± 0.38 mPa·s | viscosity (303.15 K, 100 kPa, x2 = 0.5816): 33.29 ± 0.51 mPa·s | viscosity (303.15 K, 100 kPa, x2 = 0.6785): 45.05 ± 0.72 mPa·s | viscosity (303.15 K, 100 kPa, x2 = 0.7725): 63.3 ± 1 mPa·s | viscosity (303.15 K, 100 kPa, x2 = 0.9022): 113.3 ± 2.4 mPa·s | viscosity (303.15 K, 100 kPa, x2 = 0.9392): 142.8 ± 3.4 mPa·s | viscosity (313.15 K, 100 kPa, x2 = 0.04989): 3.16 ± 0.04 mPa·s | viscosity (313.15 K, 100 kPa, x2 = 0.09747): 3.842 ± 0.049 mPa·s | viscosity (313.15 K, 100 kPa, x2 = 0.1914): 5.61 ± 0.073 mPa·s | viscosity (313.15 K, 100 kPa, x2 = 0.2888): 8.03 ± 0.11 mPa·s | viscosity (313.15 K, 100 kPa, x2 = 0.3854): 11.32 ± 0.16 mPa·s | viscosity (313.15 K, 100 kPa, x2 = 0.4724): 15.18 ± 0.22 mPa·s | viscosity (313.15 K, 100 kPa, x2 = 0.5945): 23.13 ± 0.35 mPa·s | viscosity (313.15 K, 100 kPa, x2 = 0.6785): 31.11 ± 0.5 mPa·s | viscosity (313.15 K, 100 kPa, x2 = 0.7835): 46.19 ± 0.77 mPa·s | viscosity (313.15 K, 100 kPa, x2 = 0.8966): 73.1 ± 1.3 mPa·s | viscosity (313.15 K, 100 kPa, x2 = 0.9583): 96.7 ± 2 mPa·s

C[S+](C)C.O=S(=O)([N-]S(=O)(=O)C(F)(F)F)C(F)(F)F + CC#N
electrical conductivity (264.85 K, 101 kPa, x2 = 0.87): 3.61 ± 0.15 S/m | electrical conductivity (273.15 K, 101 kPa, x2 = 0.87): 4.06 ± 0.16 S/m | electrical conductivity (298.15 K, 101 kPa, x1 = 0.0001): 0.027 S/m and 0.059 S/m | electrical conductivity (298.15 K, 101 kPa, x1 = 0.0005): 0.208 ± 0.008 S/m | electrical conductivity (323.15 K, 101 kPa, x2 = 0.87): 6.94 ± 0.28 S/m

C[S+](C)C.O=S(=O)([N-]S(=O)(=O)C(F)(F)F)C(F)(F)F + N#CCCCC#N
viscosity (278 K, 101 kPa, x1 = 0.2085): 21.84 ± 0.29 mPa·s | viscosity (303 K, 101 kPa, x1 = 0.2085): 9.44 ± 0.12 mPa·s | viscosity (318 K, 101 kPa, x1 = 0.2085): 6.433 ± 0.078 mPa·s | viscosity (328 K, 101 kPa, x1 = 0.2085): 5.159 ± 0.062 mPa·s | viscosity (333 K, 101 kPa, x1 = 0.2085): 4.664 ± 0.055 mPa·s | viscosity (338 K, 101 kPa, x1 = 0.2085): 4.238 ± 0.05 mPa·s | viscosity (348 K, 101 kPa, x1 = 0.2085): 3.558 ± 0.042 mPa·s
